# Laboratory results published in the supplement of paper PMC10307832.
# Experiments:
# Assay in all cases: relative viability (nuclei count vs DMSO), 5 days (fraction); higher = more cells survive
# NCI-H650 = test system: NCI-H650
# Procedure, shortened: (§1)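 Lung cancer cell lines, seeded in 1536-well plates, were treated the following day by pin tool with a single drug or with five library-drug doses (not always all listed) in √10 steps on top of a fixed anchor-drug dose. Cells were fixed and nuclei stained in one step after 5 days, and nuclei were counted. Relative viability is the nuclei count for treated wells divided by that for vehicle wells, reported as medians of duplicate plates.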
# NCI-H2009 = test system: NCI-H2009
# Procedure, shortened: as §1
# NCI-H1792 = test system: NCI-H1792
# Procedure, shortened: as §1
# SK-LU-1 = test system: SK-LU-1
# Procedure, shortened: as §1
# NCI-H1993 = test system: NCI-H1993
# Procedure, shortened: as §1
# LC-2-ad = test system: LC-2-ad
# Procedure, shortened: as §1
# HCC-15 = test system: HCC-15
# Procedure, shortened: as §1
# NCI-H647 = test system: NCI-H647
# Procedure, shortened: as §1
# RERF-LC-KJ = test system: RERF-LC-KJ
# Procedure, shortened: as §1
# LCLC-97TM1 = test system: LCLC-97TM1
# Procedure, shortened: as §1
# NCI-H1755 = test system: NCI-H1755
# Procedure, shortened: as §1
# NCI-H661 = test system: NCI-H661
# Procedure, shortened: as §1
smiles,measurement,setting,value
Nc1cccc2c1CN(C1CCC(=O)NC1=O)C2=O (stereo unspecified) [Lenalidomide] + Nc1nc2[nH]cc(CCc3ccc(C(=O)N[C@@H](CCC(=O)O)C(=O)O)cc3)c2c(=O)[nH]1 [Pemetrexed] (partner 0.2 µM),relative viability,NCI-H650; first compound 0.253 µM,0.902
same,relative viability,NCI-H650; first compound 0.8 µM,0.914
same,relative viability,NCI-H650; first compound 2.53 µM,1.07
same,relative viability,NCI-H650; first compound 8 µM,0.841
same,relative viability,NCI-H2009; first compound 0.253 µM,0.988
same,relative viability,NCI-H2009; first compound 0.8 µM,1.05
same,relative viability,NCI-H2009; first compound 2.53 µM,1
same,relative viability,NCI-H2009; first compound 8 µM,1.08
same,relative viability,NCI-H1792; first compound 0.253 µM,1.12
same,relative viability,NCI-H1792; first compound 0.8 µM,0.629
same,relative viability,NCI-H1792; first compound 2.53 µM,1.08
same,relative viability,NCI-H1792; first compound 8 µM,0.336
same,relative viability,SK-LU-1; first compound 0.253 µM,1.04
same,relative viability,SK-LU-1; first compound 0.8 µM,1.07
same,relative viability,SK-LU-1; first compound 2.53 µM,1.12
same,relative viability,SK-LU-1; first compound 8 µM,1.11
same,relative viability,NCI-H1993; first compound 0.253 µM,0.554
same,relative viability,NCI-H1993; first compound 0.8 µM,0.561
same,relative viability,NCI-H1993; first compound 2.53 µM,0.63
same,relative viability,NCI-H1993; first compound 8 µM,0.452
same,relative viability,LC-2-ad; first compound 0.253 µM,0.269
same,relative viability,LC-2-ad; first compound 0.8 µM,0.258
same,relative viability,LC-2-ad; first compound 2.53 µM,0.262
same,relative viability,LC-2-ad; first compound 8 µM,0.269
same,relative viability,HCC-15; first compound 0.253 µM,0.219
same,relative viability,HCC-15; first compound 2.53 µM,0.231
same,relative viability,HCC-15; first compound 8 µM,0.228
same,relative viability,NCI-H647; first compound 0.253 µM,0.173
same,relative viability,NCI-H647; first compound 0.8 µM,0.164
same,relative viability,NCI-H647; first compound 2.53 µM,0.178
same,relative viability,NCI-H647; first compound 8 µM,0.182
same,relative viability,RERF-LC-KJ; first compound 0.253 µM,0.542
same,relative viability,RERF-LC-KJ; first compound 0.8 µM,0.412
same,relative viability,RERF-LC-KJ; first compound 2.53 µM,0.503
same,relative viability,RERF-LC-KJ; first compound 8 µM,0.503
same,relative viability,LCLC-97TM1; first compound 0.253 µM,0.175
same,relative viability,LCLC-97TM1; first compound 0.8 µM,0.151
same,relative viability,LCLC-97TM1; first compound 2.53 µM,0.18
same,relative viability,LCLC-97TM1; first compound 8 µM,0.2
same,relative viability,NCI-H1755; first compound 0.253 µM,0.441
same,relative viability,NCI-H1755; first compound 0.8 µM,0.452
same,relative viability,NCI-H1755; first compound 2.53 µM,0.691
same,relative viability,NCI-H1755; first compound 8 µM,0.448
same,relative viability,NCI-H661; first compound 0.253 µM,0.908
same,relative viability,NCI-H661; first compound 0.8 µM,0.935
same,relative viability,NCI-H661; first compound 2.53 µM,0.926
